Here are results for 6 compounds from ChEMBL document CHEMBL5360592, “Ursane-Type Triterpenes with a Phenylpropanoid Unit from Camellia ptilosperma and Evaluation of Their Cytotoxic Activities” (J Nat Prod, 2023).

Holding throughout (assay type): functional, cell-based
For experiment [1], the system named is HeLa. Briefly: Cytotoxicity against human HeLa cells assessed as inhibition of cell growth incubated for 24 hrs by MTT assay.
For experiment [2], the system named is NCI-H460. Briefly: Cytotoxicity against human NCI-H460 cells assessed as inhibition of cell growth incubated for 24 hrs by MTT assay. To be noted: NCI-H460, 24 h.
The test system of experiment [3] is MDA-MB-231. Briefly: Cytotoxicity against human MDA-MB-231 cells assessed as inhibition of cell growth incubated for 24 hrs by MTT assay. To be noted: MDA-MB-231, 24 h.
The subject of experiment [4] is A549. Kind of experiment: Cytotoxicity against human A549 cells assessed as inhibition of cell growth incubated for 24 hrs by MTT assay. To be noted: A549, 24 h.
In experiment [5] the test system is HCT-116. Briefly: Cytotoxicity against human HCT-116 cells assessed as inhibition of cell growth incubated for 24 hrs by MTT assay. Conditions: HCT-116, 24 h.
The test system of experiment [6] is HT-29. Briefly: Cytotoxicity against human HT-29 cells assessed as inhibition of cell growth incubated for 24 hrs by MTT assay. Conditions: HT-29, 24 h.
The nature of experiment [7]: Cytotoxicity against mouse LL2 cells assessed as inhibition of cell growth incubated for 24 hrs by MTT assay. Conditions: Lewis lung carcinoma.
The subject of experiment [8] is CT26. Briefly: Cytotoxicity against mouse CT26 cells assessed as inhibition of cell growth incubated for 24 hrs by MTT assay. To be noted: CT26, 24 h.
The nature of experiment [9]: Cytotoxicity against mouse Hepa1-6 cells assessed as inhibition of cell growth incubated for 24 hrs by MTT assay. To be noted: Hepa1-6, 24 h.

Consider `COC(=O)[C@@]1(C)[C@@H]2CC[C@]3(C)[C@H]([C@@H]4O[C@@H](c5ccc(O)c(OC)c5)[C@@H](C)OC4=C4[C@@H]5[C@@H](C)[C@H](C)CC[C@]5(C)CC[C@]43C)[C@@]2(C)CC[C@@H]1O`, for which the IC50 in experiment [1] was 8.1 µM; in experiment [2], greater than 10 µM; in experiment [3], greater than 10 µM; in experiment [4], greater than 10 µM; in experiment [5], greater than 10 µM; in experiment [6], 8.5 µM. Also, the IC50 in [7] is greater than 10 µM; in experiment [8], greater than 10 µM; in experiment [9], 4.1 µM.
As for `COC(=O)[C@@]1(C)[C@@H]2CC[C@]3(C)[C@H]([C@@H]4O[C@H](c5ccc(O)c(OC)c5)[C@@H](C)OC4=C4[C@@H]5[C@@H](C)[C@H](C)CC[C@]5(C)CC[C@]43C)[C@@]2(C)CC[C@@H]1O`, the 50% inhibitory concentration (IC50) in [1] is greater than 10 µM; in [2] it was greater than 10 µM; in [3], 4.9 µM; in experiment [4] it was greater than 10 µM; in experiment [5], 8.2 µM; in experiment [6], greater than 10 µM. Besides, the IC50 was greater than 10 µM in experiment [7], 9.1 µM in experiment [8] and greater than 10 µM in experiment [9].
Take `COC(=O)[C@@]1(C)[C@@H]2CC[C@]3(C)[C@H]([C@@H]4O[C@H](C)[C@@H](c5ccc(O)c(OC)c5)OC4=C4[C@@H]5[C@@H](C)[C@H](C)CC[C@]5(C)CC[C@]43C)[C@@]2(C)CC[C@@H]1O`: the IC50 in experiment [1] is greater than 10 µM; in experiment [2] it was greater than 10 µM; in experiment [3], 9.3 µM; in [4] it was greater than 10 µM; in experiment [5], 7.5 µM; in experiment [6], greater than 10 µM. In addition, the concentration for half-maximal inhibition (IC50) in [7], in experiment [8] and in experiment [9] was greater than 10 µM each time.
Consider `COC(=O)[C@]1(C)[C@@H]2CC[C@]3(C)[C@H]([C@@H]4O[C@H](CO)[C@@H](c5ccc(O)c(OC)c5)OC4=C4[C@@H]5[C@@H](C)[C@H](C)CC[C@]5(C)CC[C@]43C)[C@@]2(C)CC[C@@H]1O`, for which the 50% inhibitory concentration (IC50) in experiment [1], in experiment [2], in experiment [3], in experiment [4], in experiment [5] and in [6] was greater than 10 µM in each case. Besides, the values for the IC50 in experiment [7], in [8] and in experiment [9] were greater than 10 µM, 8.2 µM and greater than 10 µM, respectively.
In the case of `COc1cc([C@H]2O[C@@H]3C(=C4[C@@H]5[C@@H](C)[C@H](C)CC[C@]5(C)CC[C@@]4(C)[C@]4(C)CC[C@H]5C(C)(C)[C@@H](O)CC[C@]5(C)[C@@H]34)O[C@@H]2CO)ccc1O`, the half-maximal inhibitory concentration (IC50) in experiment [1] is 5.2 µM; in experiment [2] it was greater than 10 µM; in experiment [3], 2.2 µM; in [4], greater than 10 µM; in experiment [5], 5.7 µM; in experiment [6], 6.8 µM. The IC50 in experiment [7] was greater than 10 µM; in experiment [8], 7.5 µM; in [9] it was 4.7 µM.
As to `COc1cc([C@H]2OC3=C4[C@@H]5[C@@H](C)[C@H](C)CC[C@]5(C)CC[C@@]4(C)[C@]4(C)CC[C@H]5C(C)(C)[C@@H](O)CC[C@]5(C)[C@H]4[C@@H]3O[C@@H]2CO)ccc1O`, the half-inhibitory concentration (IC50) in [1] was 0.7 µM; in [2] it was greater than 10 µM; in experiment [3], 2.7 µM; in experiment [4], greater than 10 µM; in [5], 1.4 µM; in [6], 5.1 µM. Besides, the IC50 in experiment [7] is greater than 10 µM; in experiment [8], greater than 10 µM; in experiment [9], 2.7 µM.
